Assay results as given in patent US12275731B2, “Azaindole inhibitors of wild-type and mutant forms of LRRK2” (DANA-FARBER CANCER INSTITUTE, INC., priority 2018, dated 2025).

Columns and labels:
Experiment in all cases: KinomeScan profiling
Format in all cases: binding
HIPK1 = HIPK1 (Homo sapiens, UniProt Q86Z02); settings: HIPK1, 1 μM; read-out: % control
Summary of the method: (§1)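 Percent-of-control values derive from RLU, calculated as (test − positive)/(negative − positive) × 100, where DMSO defines 100% and a positive control compound defines 0%. Each compound was tested at 1 μM in the 468-kinase panel; sub-35% readings indicate activity.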

PIK3CB = target: T1, PIK3CB (Homo sapiens, UniProt P42338); settings: read-out: % control
T1 construct: purchased KinomeScan® (panel service)
Summary of the method: as §1

LATS2 = target: T2, LATS2 (Homo sapiens, UniProt Q9NRM7); settings: LATS2, 1 μM; read-out: % control
T2 sequence (Q9NRM7 1-1088): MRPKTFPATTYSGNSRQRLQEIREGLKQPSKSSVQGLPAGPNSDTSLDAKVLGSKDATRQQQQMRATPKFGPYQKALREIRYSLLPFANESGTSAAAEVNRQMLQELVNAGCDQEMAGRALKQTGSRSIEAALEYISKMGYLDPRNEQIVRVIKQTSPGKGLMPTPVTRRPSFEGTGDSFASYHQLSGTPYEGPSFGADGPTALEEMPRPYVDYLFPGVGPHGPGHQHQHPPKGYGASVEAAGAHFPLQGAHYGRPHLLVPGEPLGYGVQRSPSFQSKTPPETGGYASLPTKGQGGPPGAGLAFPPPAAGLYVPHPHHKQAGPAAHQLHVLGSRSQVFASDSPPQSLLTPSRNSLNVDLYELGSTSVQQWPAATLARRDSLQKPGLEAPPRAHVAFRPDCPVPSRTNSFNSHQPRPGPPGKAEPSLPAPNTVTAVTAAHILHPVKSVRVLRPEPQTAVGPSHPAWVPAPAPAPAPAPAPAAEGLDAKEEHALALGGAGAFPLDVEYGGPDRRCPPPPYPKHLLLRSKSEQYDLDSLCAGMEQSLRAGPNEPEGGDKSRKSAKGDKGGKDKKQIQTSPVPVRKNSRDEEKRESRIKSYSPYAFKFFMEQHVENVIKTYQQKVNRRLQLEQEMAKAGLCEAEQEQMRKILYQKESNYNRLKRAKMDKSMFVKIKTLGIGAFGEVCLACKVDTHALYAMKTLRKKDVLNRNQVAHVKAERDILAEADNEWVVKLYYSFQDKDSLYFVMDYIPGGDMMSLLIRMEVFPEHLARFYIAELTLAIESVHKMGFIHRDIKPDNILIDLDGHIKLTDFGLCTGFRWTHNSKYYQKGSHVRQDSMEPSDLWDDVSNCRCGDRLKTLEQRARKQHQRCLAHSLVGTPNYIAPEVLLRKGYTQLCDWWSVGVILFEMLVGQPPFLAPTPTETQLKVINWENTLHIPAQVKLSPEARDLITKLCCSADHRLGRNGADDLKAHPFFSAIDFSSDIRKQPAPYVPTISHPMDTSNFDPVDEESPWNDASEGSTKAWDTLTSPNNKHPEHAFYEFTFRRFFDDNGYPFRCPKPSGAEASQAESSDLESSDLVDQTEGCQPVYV
Summary of the method: as §1

CDC2L5 = CDC2L5 (Homo sapiens, UniProt Q14004); settings: CDC2L5, 1 μM; read-out: % control
Summary of the method: as §1

FGFR2 = FGFR2 (Homo sapiens, UniProt P21802); settings: FGFR2, 1 μM; read-out: % control
Summary of the method: as §1

ULK1 = target: T3, ULK1 (Homo sapiens, UniProt O75385); settings: ULK1, 1 μM; read-out: % control
T3 sequence (O75385 1-1050): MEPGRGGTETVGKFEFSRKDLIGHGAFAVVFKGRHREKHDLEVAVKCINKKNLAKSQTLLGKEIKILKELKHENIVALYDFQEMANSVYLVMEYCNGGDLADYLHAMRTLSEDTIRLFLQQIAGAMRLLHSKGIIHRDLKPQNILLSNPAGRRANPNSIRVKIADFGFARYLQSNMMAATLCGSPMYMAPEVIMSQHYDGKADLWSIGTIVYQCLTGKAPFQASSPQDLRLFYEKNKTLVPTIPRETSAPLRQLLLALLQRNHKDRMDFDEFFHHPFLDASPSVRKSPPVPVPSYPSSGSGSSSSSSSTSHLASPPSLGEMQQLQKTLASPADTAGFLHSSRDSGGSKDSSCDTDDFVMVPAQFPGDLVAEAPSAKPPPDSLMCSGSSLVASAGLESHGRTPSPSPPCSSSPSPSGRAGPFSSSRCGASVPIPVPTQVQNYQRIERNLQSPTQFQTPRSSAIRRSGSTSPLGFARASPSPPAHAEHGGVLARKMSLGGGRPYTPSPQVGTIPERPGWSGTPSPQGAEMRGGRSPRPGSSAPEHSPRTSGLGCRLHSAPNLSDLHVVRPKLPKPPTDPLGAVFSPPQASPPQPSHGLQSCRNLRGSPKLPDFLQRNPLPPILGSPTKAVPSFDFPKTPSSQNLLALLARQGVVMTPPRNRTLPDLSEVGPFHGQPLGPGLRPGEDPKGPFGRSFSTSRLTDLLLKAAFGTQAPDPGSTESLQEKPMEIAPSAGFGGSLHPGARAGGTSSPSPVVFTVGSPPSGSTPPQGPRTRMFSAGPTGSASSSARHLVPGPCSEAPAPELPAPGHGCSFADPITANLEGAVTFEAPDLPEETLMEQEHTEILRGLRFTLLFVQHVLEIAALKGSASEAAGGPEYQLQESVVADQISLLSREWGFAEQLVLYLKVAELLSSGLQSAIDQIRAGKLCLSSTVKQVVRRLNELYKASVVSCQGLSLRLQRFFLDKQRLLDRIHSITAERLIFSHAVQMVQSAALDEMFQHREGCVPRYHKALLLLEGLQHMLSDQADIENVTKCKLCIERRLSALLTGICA
Summary of the method: as §1

T1 sequence (P42338 whole entry): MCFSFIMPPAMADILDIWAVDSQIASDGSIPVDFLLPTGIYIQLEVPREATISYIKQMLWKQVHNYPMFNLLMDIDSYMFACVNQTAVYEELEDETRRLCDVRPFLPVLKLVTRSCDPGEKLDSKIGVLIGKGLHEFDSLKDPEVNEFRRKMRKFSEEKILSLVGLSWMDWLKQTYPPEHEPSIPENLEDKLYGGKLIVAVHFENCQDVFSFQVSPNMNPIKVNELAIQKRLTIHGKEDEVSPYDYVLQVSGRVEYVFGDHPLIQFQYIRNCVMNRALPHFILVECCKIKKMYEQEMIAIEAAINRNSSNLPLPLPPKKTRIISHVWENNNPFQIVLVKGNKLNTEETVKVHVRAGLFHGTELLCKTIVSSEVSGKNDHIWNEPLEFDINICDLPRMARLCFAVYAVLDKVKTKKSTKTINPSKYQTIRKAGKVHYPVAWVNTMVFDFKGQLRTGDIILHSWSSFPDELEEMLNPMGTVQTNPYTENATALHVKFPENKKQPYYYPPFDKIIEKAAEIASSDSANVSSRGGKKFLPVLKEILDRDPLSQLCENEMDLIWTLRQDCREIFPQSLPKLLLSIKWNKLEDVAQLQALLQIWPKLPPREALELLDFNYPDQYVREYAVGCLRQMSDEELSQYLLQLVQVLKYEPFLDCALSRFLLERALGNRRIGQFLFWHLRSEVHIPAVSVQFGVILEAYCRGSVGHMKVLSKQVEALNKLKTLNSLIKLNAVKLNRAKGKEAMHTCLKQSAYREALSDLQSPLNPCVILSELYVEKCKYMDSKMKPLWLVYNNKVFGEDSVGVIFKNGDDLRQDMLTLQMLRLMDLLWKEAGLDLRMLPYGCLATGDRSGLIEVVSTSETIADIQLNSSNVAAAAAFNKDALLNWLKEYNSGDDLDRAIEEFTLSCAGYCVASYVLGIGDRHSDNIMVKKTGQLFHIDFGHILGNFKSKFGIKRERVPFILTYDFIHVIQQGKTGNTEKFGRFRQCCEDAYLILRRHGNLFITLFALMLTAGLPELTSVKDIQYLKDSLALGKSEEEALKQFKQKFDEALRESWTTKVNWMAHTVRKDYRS
Sequence of FGFR2 (P21802 22-821): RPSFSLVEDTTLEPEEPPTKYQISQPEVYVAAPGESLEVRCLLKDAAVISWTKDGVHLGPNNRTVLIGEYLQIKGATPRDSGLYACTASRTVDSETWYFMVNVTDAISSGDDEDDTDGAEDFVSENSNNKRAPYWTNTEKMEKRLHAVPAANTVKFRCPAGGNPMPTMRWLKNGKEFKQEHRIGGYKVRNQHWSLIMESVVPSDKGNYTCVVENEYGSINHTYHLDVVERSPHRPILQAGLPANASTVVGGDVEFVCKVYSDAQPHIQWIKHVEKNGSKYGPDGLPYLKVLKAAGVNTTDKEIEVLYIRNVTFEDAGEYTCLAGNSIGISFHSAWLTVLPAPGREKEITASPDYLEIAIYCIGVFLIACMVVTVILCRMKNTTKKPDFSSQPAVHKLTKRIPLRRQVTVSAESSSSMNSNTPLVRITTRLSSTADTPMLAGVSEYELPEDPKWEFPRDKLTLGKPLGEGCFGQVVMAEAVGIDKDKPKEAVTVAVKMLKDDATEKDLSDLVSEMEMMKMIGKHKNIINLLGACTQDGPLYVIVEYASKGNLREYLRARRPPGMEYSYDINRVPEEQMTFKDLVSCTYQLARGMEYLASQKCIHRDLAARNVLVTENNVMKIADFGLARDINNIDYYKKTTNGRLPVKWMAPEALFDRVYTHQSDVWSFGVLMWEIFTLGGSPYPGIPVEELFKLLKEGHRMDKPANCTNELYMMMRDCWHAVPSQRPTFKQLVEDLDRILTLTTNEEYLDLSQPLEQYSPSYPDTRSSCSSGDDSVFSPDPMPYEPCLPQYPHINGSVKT
Sequence of CDC2L5 (Q14004 whole entry): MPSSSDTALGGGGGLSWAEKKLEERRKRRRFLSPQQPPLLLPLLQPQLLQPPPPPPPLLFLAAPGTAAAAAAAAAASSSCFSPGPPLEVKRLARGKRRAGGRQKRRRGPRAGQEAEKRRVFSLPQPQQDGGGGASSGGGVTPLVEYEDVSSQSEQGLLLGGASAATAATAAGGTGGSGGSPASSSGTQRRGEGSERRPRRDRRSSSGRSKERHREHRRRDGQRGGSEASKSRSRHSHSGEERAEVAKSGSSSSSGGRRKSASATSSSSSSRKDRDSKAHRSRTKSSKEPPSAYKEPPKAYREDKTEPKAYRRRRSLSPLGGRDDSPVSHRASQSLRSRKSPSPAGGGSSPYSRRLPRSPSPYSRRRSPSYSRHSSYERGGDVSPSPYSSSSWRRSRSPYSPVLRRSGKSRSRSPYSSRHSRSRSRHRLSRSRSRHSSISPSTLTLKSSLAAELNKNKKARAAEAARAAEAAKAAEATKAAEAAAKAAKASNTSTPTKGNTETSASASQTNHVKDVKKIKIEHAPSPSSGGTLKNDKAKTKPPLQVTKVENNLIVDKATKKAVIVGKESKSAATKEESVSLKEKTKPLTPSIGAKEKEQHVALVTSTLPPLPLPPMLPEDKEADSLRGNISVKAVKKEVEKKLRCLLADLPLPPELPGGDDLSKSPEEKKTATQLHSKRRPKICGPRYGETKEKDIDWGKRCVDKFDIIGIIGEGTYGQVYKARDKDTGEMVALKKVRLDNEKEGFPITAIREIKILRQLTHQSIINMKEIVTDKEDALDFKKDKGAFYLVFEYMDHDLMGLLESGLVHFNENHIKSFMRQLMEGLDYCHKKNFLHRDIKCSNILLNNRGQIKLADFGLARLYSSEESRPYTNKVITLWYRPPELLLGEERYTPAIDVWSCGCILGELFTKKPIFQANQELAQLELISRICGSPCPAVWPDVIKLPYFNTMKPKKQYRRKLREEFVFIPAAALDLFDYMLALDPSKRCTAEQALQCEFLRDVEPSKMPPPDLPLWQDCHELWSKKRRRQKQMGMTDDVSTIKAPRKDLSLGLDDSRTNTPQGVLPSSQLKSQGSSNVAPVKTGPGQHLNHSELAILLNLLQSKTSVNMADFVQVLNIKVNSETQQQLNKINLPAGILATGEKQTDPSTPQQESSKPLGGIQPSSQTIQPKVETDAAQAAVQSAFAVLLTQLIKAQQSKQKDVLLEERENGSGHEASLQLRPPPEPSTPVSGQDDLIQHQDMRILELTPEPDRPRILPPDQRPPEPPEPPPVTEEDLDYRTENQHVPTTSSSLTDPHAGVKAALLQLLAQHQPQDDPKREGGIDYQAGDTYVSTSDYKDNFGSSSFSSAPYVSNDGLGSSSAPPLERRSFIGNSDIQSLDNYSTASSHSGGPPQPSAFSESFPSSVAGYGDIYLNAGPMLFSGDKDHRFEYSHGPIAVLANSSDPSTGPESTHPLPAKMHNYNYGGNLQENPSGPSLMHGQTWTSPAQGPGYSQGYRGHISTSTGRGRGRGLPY
Sequence of HIPK1 (Q86Z02 whole entry): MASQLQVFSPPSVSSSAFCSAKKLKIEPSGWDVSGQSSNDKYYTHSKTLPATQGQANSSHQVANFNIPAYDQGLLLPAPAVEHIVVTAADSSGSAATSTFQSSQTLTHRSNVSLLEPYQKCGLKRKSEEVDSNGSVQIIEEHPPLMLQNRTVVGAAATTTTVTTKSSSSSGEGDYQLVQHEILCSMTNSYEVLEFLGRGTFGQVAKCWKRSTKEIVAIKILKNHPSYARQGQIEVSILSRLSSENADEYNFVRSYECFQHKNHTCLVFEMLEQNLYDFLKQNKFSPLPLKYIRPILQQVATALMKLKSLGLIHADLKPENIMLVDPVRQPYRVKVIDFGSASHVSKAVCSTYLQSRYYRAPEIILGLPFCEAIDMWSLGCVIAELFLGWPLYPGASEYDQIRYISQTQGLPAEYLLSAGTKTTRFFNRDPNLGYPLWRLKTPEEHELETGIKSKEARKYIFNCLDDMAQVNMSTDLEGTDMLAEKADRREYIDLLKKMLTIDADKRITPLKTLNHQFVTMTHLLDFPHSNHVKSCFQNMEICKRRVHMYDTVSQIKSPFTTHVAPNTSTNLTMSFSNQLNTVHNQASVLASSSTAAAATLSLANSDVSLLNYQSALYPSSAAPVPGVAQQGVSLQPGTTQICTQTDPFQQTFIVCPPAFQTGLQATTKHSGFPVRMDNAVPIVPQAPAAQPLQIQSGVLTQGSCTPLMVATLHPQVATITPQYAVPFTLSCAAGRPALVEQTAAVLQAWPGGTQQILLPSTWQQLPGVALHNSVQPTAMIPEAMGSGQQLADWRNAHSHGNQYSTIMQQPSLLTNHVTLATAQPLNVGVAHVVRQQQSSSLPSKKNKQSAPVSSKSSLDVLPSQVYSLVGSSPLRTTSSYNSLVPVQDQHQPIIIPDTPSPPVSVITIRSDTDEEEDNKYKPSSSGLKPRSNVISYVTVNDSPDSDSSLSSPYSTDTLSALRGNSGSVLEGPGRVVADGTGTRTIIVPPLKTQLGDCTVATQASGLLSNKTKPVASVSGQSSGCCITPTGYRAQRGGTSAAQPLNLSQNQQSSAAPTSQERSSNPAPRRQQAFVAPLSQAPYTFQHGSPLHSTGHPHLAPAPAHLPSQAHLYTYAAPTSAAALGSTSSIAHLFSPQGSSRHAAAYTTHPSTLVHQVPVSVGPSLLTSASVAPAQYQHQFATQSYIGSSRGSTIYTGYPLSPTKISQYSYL

| SMILES | remaining binding at 1 µM (HIPK1) [%] | remaining binding at 1 µM (PIK3CB) [%] | remaining binding at 1 µM (LATS2) [%] | remaining binding at 1 µM (CDC2L5) [%] | remaining binding at 1 µM (FGFR2) [%] | remaining binding at 1 µM (ULK1) [%] |
| --- | --- | --- | --- | --- | --- | --- |
| CNc1c(-c2ccc(C(=O)N3CCC(N4CCOCC4)CC3)cc2)cnc2[nH]cc(Cl)c12 [Compound 96, (4-(3-chloro-4-(methylamino)-1H-pyrrolo[2,3-b]pyridin-5-yl)phenyl)(4-morpholinopiperidin-1-yl)methanone] | 68 | 100 | 78 | 100 | 94 | 3.8 |
| O=C(c1ccc(-c2cnc3[nH]cc(Cl)c3c2NC2CCCC2)cc1)N1CCC(N2CCOCC2)CC1 [Compound 101, (4-(3-chloro-4-(cyclopentylamino)-1H-pyrrolo[2,3-b]pyridin-5-yl)phenyl)(4-morpholinopiperidin-1-yl)methanone] | 92 | 100 | 82 | 2.1 | 54 | 73 |
| CNc1c(-c2cnn([C@H]3CCN(C(C)=O)C[C@@H]3F)c2)cnc2[nH]cc(Cl)c12 [Compound 77, 1-((3S,4S)-4-(4-(3-chloro-4-(methylamino)-1H-pyrrolo[2,3-b]pyridin-5-yl)-1H-pyrazol-1-yl)-3-fluoropiperidin-1-yl)ethan-1-one] | 70 | 100 | 86 | 100 | 72 | 3.1 |
